According to ChEMBL document CHEMBL4699398, “The synthesis and biological evaluation of sanguinarine derivatives as anti-non-small cell lung cancer agents” (RSC Med Chem, 2020):
pIC50: −log10 of the molar value.

What follows are compounds tested on HeLa (assay: Antiproliferative activity against human HeLa cells assessed as reduction in cell viability after 24 hrs by MTT assay). Conditions: not given.
Format: functional, cell-based

Row | pIC50 | Compound
1 | 5.61 | C[n+]1cc2c3c(ccc2c2ccc4cc5c(cc4c21)OCO5)OCO3 [SANGUINARIUM CHLORIDE]

The compounds below were run on A549 (assay: Antiproliferative activity against human A549 cells assessed as inhibition of cell growth incubated for 72 hrs by CCK-8 assay). Conditions: A549, 72 h.

Row | pIC50 | Compound
2 | < 4.52 | Cn1c(=O)c2c3c(ccc2c2ccc4cc5c(cc4c21)OCO5)OCO3
3 | < 4.52 | CCCN1Cc2c(ccc3c2OCO3)-c2ccc3cc4c(cc3c21)OCO4
4 | < 4.52 | CCN1Cc2c(ccc3c2OCO3)-c2ccc3cc4c(cc3c21)OCO4
5 | 5.83 | CCCNC1c2c(ccc3c2OCO3)-c2ccc3cc4c(cc3c2N1C)OCO4 (centres undefined)
6 | 5.36 | CN1c2c(ccc3cc4c(cc23)OCO4)-c2ccc3c(c2C1NCc1ccccc1)OCO3 (centres undefined)
7 | 5.90 | CCNC1c2c(ccc3c2OCO3)-c2ccc3cc4c(cc3c2N1C)OCO4 (centres undefined)
8 | 5.80 | C[n+]1cc2c3c(ccc2c2ccc4cc5c(cc4c21)OCO5)OCO3 [SANGUINARIUM CHLORIDE]
9 | 5.84 | CC(C)NC1c2c(ccc3c2OCO3)-c2ccc3cc4c(cc3c2N1C)OCO4 (centres undefined)
10 | 6.02 | CN1c2c(ccc3cc4c(cc23)OCO4)-c2ccc3c(c2C1C#N)OCO3 (centres undefined)
11 | 5.71 | CN1c2c(ccc3cc4c(cc23)OCO4)-c2ccc3c(c2C1NC1CCCC1)OCO3 (centres undefined)
12 | < 4.52 | CC1c2c(ccc3c2OCO3)-c2ccc3cc4c(cc3c2N1C)OCO4 (centres undefined)

Row | Compound | pIC50
13 | c1cc2c(cnc3c4cc5c(cc4ccc23)OCO5)c2c1OCO2 | < 4.52
14 | COC1c2c(ccc3c2OCO3)-c2ccc3cc4c(cc3c2N1C)OCO4 (centres undefined) | 5.80
15 | CN1Cc2c(ccc3c2OCO3)-c2ccc3cc4c(cc3c21)OCO4 [DIHYDROSANGUINARINE] | < 4.52

The compounds below were run on NCI-H1975 (assay: Antiproliferative activity against human H1975 cells assessed as inhibition of cell growth incubated for 72 hrs by CCK-8 assay). Conditions: NCI-H1975, 72 h.

Row | pIC50 | Compound
16 | < 4.52 | Cn1c(=O)c2c3c(ccc2c2ccc4cc5c(cc4c21)OCO5)OCO3
17 | < 4.52 | CCCN1Cc2c(ccc3c2OCO3)-c2ccc3cc4c(cc3c21)OCO4
18 | < 4.52 | CCN1Cc2c(ccc3c2OCO3)-c2ccc3cc4c(cc3c21)OCO4
19 | 6.00 | CCCNC1c2c(ccc3c2OCO3)-c2ccc3cc4c(cc3c2N1C)OCO4 (centres undefined)
20 | 5.50 | CN1c2c(ccc3cc4c(cc23)OCO4)-c2ccc3c(c2C1NCc1ccccc1)OCO3 (centres undefined)
21 | 6.03 | CCNC1c2c(ccc3c2OCO3)-c2ccc3cc4c(cc3c2N1C)OCO4 (centres undefined)
22 | 5.88 | C[n+]1cc2c3c(ccc2c2ccc4cc5c(cc4c21)OCO5)OCO3 [SANGUINARIUM CHLORIDE]
23 | 6.02 | CC(C)NC1c2c(ccc3c2OCO3)-c2ccc3cc4c(cc3c2N1C)OCO4 (centres undefined)
24 | 6.10 | CN1c2c(ccc3cc4c(cc23)OCO4)-c2ccc3c(c2C1C#N)OCO3 (centres undefined)
25 | 5.80 | CN1c2c(ccc3cc4c(cc23)OCO4)-c2ccc3c(c2C1NC1CCCC1)OCO3 (centres undefined)
26 | < 4.52 | CC1c2c(ccc3c2OCO3)-c2ccc3cc4c(cc3c2N1C)OCO4 (centres undefined)

Row | Compound | pIC50
27 | c1cc2c(cnc3c4cc5c(cc4ccc23)OCO5)c2c1OCO2 | < 4.52
28 | COC1c2c(ccc3c2OCO3)-c2ccc3cc4c(cc3c2N1C)OCO4 (centres undefined) | 5.93
29 | CN1Cc2c(ccc3c2OCO3)-c2ccc3cc4c(cc3c21)OCO4 [DIHYDROSANGUINARINE] | 4.72
